Reference: patent US20150250166A1, “NOOTKATONE AS AN INSECTICIDE AND INSECT REPELLENT” (ALLYLIX, INC., priority 2012, published 2015)

Tested on: adult bed bugs (Cimex lectularius)
Experiment: Bed bug repellency, treated versus untreated filter paper halves in Petri dish chamber
Format: in vivo
Conditions: for Repellency (%) Treatment Group / bed bugs on Nootkatone treatment filter paper (count, of 50) / Repellency (summary of bedbug repellency): 0.1% BHT; for Corrected 0.25% nootkatone repellency / bed bugs on 0.25% Nootkatone-treated filter paper, average count (of 10) / Corrected 1% nootkatone repellency / bed bugs on 1% Nootkatone-treated filter paper, average count (of 10): 0.1% BHT in ethanol, dried paper; for Nootkatone Repellency / bed bugs on nootkatone-treated filter paper (count, of 50): 5% Nootkatone in acetone, 0.1% BHT (title; column head prints 10%); for Nootkatone Repellency (corrected for isopropanol control) / bed bugs on 10% Nootkatone-treated filter paper, average count of five trials (of 10): 10% nootkatone, 0.1% BHT in isopropanol
Experimental: A formulation, containing 10% nootkatone, 0.1% butylated hydroxytoluene (BHT) in isopropanol was tested for efficacy for repelling adult bed bugs (Cimex lectularius). Treatment chambers were created by cutting a circular hole in the bottom of 15-cm Petri dishes. A fine mesh nylon cloth was then glued to Petri dishes, covering the holes. The chambers were formed using the inverted Petri dishes with the screened bottoms serving as the tops and the lids forming the base of the chambers. The lids were secured with rubber bands.
Five semi-circular pieces of filter paper, with a diameter of 15 cm, were arranged so that they were evenly spaced on a sheet of aluminum foil. Equal amounts of 10% nootkatone solution, stored at ambient temperature and humidity, were applied to the filter papers until they were wet to the point of runoff. Five untreated semi-circular pieces were marked with the letter “c”, for control, on both sides in pencil or solvent resistant ink. One nootkatone-treated filter paper and one untreated filter paper were placed with the flat sides against each other, creating a full circle, in the lids of five 15-cm Petri dishes, serving as the treatment chambers described above, such that the entire surface of the lid was covered. Immediately after placing the filter paper semi-circles into the lid, 10 bed bugs, having received a blood meal no more than 7 days before, were placed onto the untreated piece of paper and covered with the ventilated base of the Petri dish. The containers of each replicate were then kept at ambient laboratory temperature and humidity for the duration of the study. The distribution of the bed bugs on the treated and untreated filter papers was recorded at 0.5, 1, 1.5, 2, and 24 hours after being placed in the containers. Observations were made in darkness with the aid of a red lens flashlight. Gloves and a dust mask were worn by the observer to reduce detection of the bed bugs and to minimize disturbance caused by the observer. Five additional treatment chambers were created as described above, except the treated filter paper was soaked with isopropyl alcohol (control treatment), instead of the 10% nootkatone solution. Bed bug distribution in the control chambers were recorded as described for the treatment condition.
The nootkatone treatment repellency was calculated from the following equation: R=[(C−T)/C]*100, where R is the % repellency, C is the fraction of bed bugs on the isopropanol-treated filter papers, and T is the fraction of bed bugs on the nootkatone-treated filter papers.
A formulation, containing 5% nootkatone, 0.1% butylated hydroxytoluene (BHT) in acetone was tested for efficacy for repelling adult bed bugs (Cimex lectularius) using the methods as described above.
The duration of 1% and 0.25% nootkatone […] repellent effects was evaluated in this example. Bed bug (Cimex lectularius) treatment chambers were created as described in part A above, except using 9-cm Petri dishes and semicircles of filter paper with a diameter of 9 cm. Five replicate semicircles of filter paper were treated with 1 ml 1.0% nootkatone, 0.1% BHT in ethanol; 0.25% nootkatone, 0.1% BHT in ethanol; or ethanol alone (control), and placed side by side with untreated filter papers (marked with a “c”) in Petri dishes so that the lid surfaces were completely covered as previously described in part A. Prior to addition of the bed bugs, the filter papers were confirmed to be completely dry and free of any residual ethanol odor.
Following chamber preparation, 10 bed bugs, having received a blood meal no more than 7 days prior, were added to each chamber on the untreated filter paper as described above. Distribution of the 10 bed bugs per chamber was recorded at 0.5, 1, 1.5, 2, and 24 hours following treatment (Day 1). At the end of 24 hours, the old bed bugs were removed from the Petri dish and 10 new bed bugs were added. […]

[1] = 0.01% nootkatone in acetone, Day 1, 0.5 hour
[2] = 0.01% nootkatone in acetone, Day 1, 1.5 hour
[3] = 0.01% nootkatone in acetone, Day 1, 2.0 hour
[4] = 0.01% nootkatone in acetone, Day 1, Average of time points
[5] = 0.01% nootkatone in acetone, Day 2, 0.5 hour
[6] = 0.01% nootkatone in acetone, Day 2, 1.0 hour
[7] = 0.01% nootkatone in acetone, Day 2, 1.5 hour
[8] = 0.01% nootkatone in acetone, Day 2, 2.0 hour
[9] = 0.01% nootkatone in acetone, Day 2, 24.0 hour
[10] = 0.01% nootkatone in acetone, Day 2, Average of time points
[11] = 0.10% nootkatone in acetone, Day 1, 1.0 hour
[12] = 0.10% nootkatone in acetone, Day 1, 1.5 hour
[13] = 0.10% nootkatone in acetone, Day 1, 24.0 hour
[14] = 0.10% nootkatone in acetone, Day 1, Average of time points
[15] = 0.10% nootkatone in acetone, Day 2, 0.5 hour
[16] = 0.10% nootkatone in acetone, Day 2, 1.0 hour
[17] = 0.10% nootkatone in acetone, Day 2, 1.5 hour
[18] = 0.10% nootkatone in acetone, Day 2, 2.0 hour
[19] = 0.10% nootkatone in acetone, Day 2, 24.0 hour
[20] = 0.10% nootkatone in acetone, Day 2, Average of time points
[21] = 0.50% nootkatone in acetone, Day 1, 1.0 hour
[22] = 0.50% nootkatone in acetone, Day 1, 1.5 hour
[23] = 0.50% nootkatone in acetone, Day 1, 2.0 hour
[24] = 0.50% nootkatone in acetone, Day 1, 24.0 hour
[25] = 0.50% nootkatone in acetone, Day 2, 0.5 hour
[26] = 0.50% nootkatone in acetone, Day 2, 1.5 hour
[27] = 0.50% nootkatone in acetone, Day 2, 2.0 hour
[28] = 0.50% nootkatone in acetone, Day 2, 24.0 hour

C=C(C)[C@@H]1CCC2=CC(=O)C[C@@H](C)[C@]2(C)C1 [nootkatone, 4,4a,5,6,7,8-hexahydro-6-isopropenyl-4,4a-dimethyl-2(3H)-naphtalenone]
Repellency (%) Treatment Group [1]: 68.0%
bed bugs on Nootkatone treatment filter paper (count, of 50) [1]: 16
bed bugs on Nootkatone treatment filter paper (count, of 50) (0.01% nootkatone in acetone, Day 1, 1.0 hour): 17
Repellency (%) Treatment Group [2]: 66.0%
bed bugs on Nootkatone treatment filter paper (count, of 50) [2]: 17
Repellency (%) Treatment Group [3]: 72.0%
bed bugs on Nootkatone treatment filter paper (count, of 50) [3]: 14
Repellency (%) Treatment Group (0.01% nootkatone in acetone, Day 1, 24.0 hour): 58.0%
Repellency (%) Treatment Group [4]: 66.0%
bed bugs on Nootkatone treatment filter paper (count, of 50) [4]: 17.0
Repellency (%) Treatment Group [5]: 82.0%
bed bugs on Nootkatone treatment filter paper (count, of 50) [5]: 9
Repellency (%) Treatment Group [6]: 72.0%
bed bugs on Nootkatone treatment filter paper (count, of 50) [6]: 14
Repellency (%) Treatment Group [7]: 62.0%
bed bugs on Nootkatone treatment filter paper (count, of 50) [7]: 19
Repellency (%) Treatment Group [8]: 64.0%
bed bugs on Nootkatone treatment filter paper (count, of 50) [8]: 18
Repellency (%) Treatment Group [9]: 62.0%
bed bugs on Nootkatone treatment filter paper (count, of 50) [9]: 19
Repellency (%) Treatment Group [10]: 68.4%
bed bugs on Nootkatone treatment filter paper (count, of 50) [10]: 15.8
bed bugs on Nootkatone treatment filter paper (count, of 50) (0.10% nootkatone in acetone, Day 1, 0.5 hour): 3
Repellency (%) Treatment Group [11]: 92.0%
bed bugs on Nootkatone treatment filter paper (count, of 50) [11]: 4
Repellency (%) Treatment Group [12]: 90.0%
bed bugs on Nootkatone treatment filter paper (count, of 50) [12]: 5
bed bugs on Nootkatone treatment filter paper (count, of 50) (0.10% nootkatone in acetone, Day 1, 2.0 hour): 3
Repellency (%) Treatment Group [13]: 98.0%
bed bugs on Nootkatone treatment filter paper (count, of 50) [13]: 1
Repellency (%) Treatment Group [14]: 93.6%
bed bugs on Nootkatone treatment filter paper (count, of 50) [14]: 3.2
Repellency (%) Treatment Group [15]: 72.0%
bed bugs on Nootkatone treatment filter paper (count, of 50) [15]: 14
Repellency (%) Treatment Group [16]: 70.0%
bed bugs on Nootkatone treatment filter paper (count, of 50) [16]: 15
Repellency (%) Treatment Group [17]: 74.0%
bed bugs on Nootkatone treatment filter paper (count, of 50) [17]: 13
Repellency (%) Treatment Group [18]: 70.0%
bed bugs on Nootkatone treatment filter paper (count, of 50) [18]: 15
Repellency (%) Treatment Group [19]: 82.0%
bed bugs on Nootkatone treatment filter paper (count, of 50) [19]: 9
Repellency (%) Treatment Group [20]: 73.6%
bed bugs on Nootkatone treatment filter paper (count, of 50) [20]: 13.2
bedbug repellency, in words (0.1% nootkatone in acetone, day two): moderate (statistically significant) repellent
bedbug repellency, in words (0.25% nootkatone in ethanol): not sufficient to repel bed bugs
Corrected 0.25% nootkatone repellency (Day 1): 19%
bed bugs on 0.25% Nootkatone-treated filter paper, average count (of 10) (Day 1): 2.68
Corrected 0.25% nootkatone repellency (Day 2): 23%
bed bugs on 0.25% Nootkatone-treated filter paper, average count (of 10) (Day 2): 4.2
Corrected 0.25% nootkatone repellency (Day 3): 49%
bed bugs on 0.25% Nootkatone-treated filter paper, average count (of 10) (Day 3): 2.32
Corrected 0.25% nootkatone repellency (Day 4): −14%
bed bugs on 0.25% Nootkatone-treated filter paper, average count (of 10) (Day 4): 4
Repellency (%) Treatment Group [21]: 100.0%
bed bugs on Nootkatone treatment filter paper (count, of 50) [21]: 0
Repellency (%) Treatment Group [22]: 100.0%
bed bugs on Nootkatone treatment filter paper (count, of 50) [22]: 0
Repellency (%) Treatment Group [23]: 100.0%
bed bugs on Nootkatone treatment filter paper (count, of 50) [23]: 0
Repellency (%) Treatment Group [24]: 100.0%
bed bugs on Nootkatone treatment filter paper (count, of 50) [24]: 0
Repellency (%) Treatment Group (0.50% nootkatone in acetone, Day 1, Average of time points): 100.0%
Repellency (%) Treatment Group [25]: 86.0%
bed bugs on Nootkatone treatment filter paper (count, of 50) [25]: 7
bed bugs on Nootkatone treatment filter paper (count, of 50) (0.50% nootkatone in acetone, Day 2, 1.0 hour): 6
Repellency (%) Treatment Group [26]: 94.0%
bed bugs on Nootkatone treatment filter paper (count, of 50) [26]: 3
Repellency (%) Treatment Group [27]: 98.0%
bed bugs on Nootkatone treatment filter paper (count, of 50) [27]: 1
Repellency (%) Treatment Group [28]: 92.0%
bed bugs on Nootkatone treatment filter paper (count, of 50) [28]: 4
Repellency (%) Treatment Group (0.50% nootkatone in acetone, Day 2, Average of time points): 91.6%
duration of bed bug repellency following treatment (1% nootkatone in ethanol on filter paper): about 4 days
Corrected 1% nootkatone repellency (Day 1): 93%
bed bugs on 1% Nootkatone-treated filter paper, average count (of 10) (Day 1): 0.24
Corrected 1% nootkatone repellency (Day 2): 66%
bed bugs on 1% Nootkatone-treated filter paper, average count (of 10) (Day 2): 1.84
Corrected 1% nootkatone repellency (Day 3): 81%
bed bugs on 1% Nootkatone-treated filter paper, average count (of 10) (Day 3): 0.88
Corrected 1% nootkatone repellency (Day 4): 84%
bed bugs on 1% Nootkatone-treated filter paper, average count (of 10) (Day 4): 0.56
Corrected 1% nootkatone repellency (Day 5): 68%
bed bugs on 1% Nootkatone-treated filter paper, average count (of 10) (Day 5): 1.52
Corrected 1% nootkatone repellency (Day 6): 20%
bed bugs on 1% Nootkatone-treated filter paper, average count (of 10) (Day 6): 2.24
Corrected 1% nootkatone repellency (Day 7): 63%
bed bugs on 1% Nootkatone-treated filter paper, average count (of 10) (Day 7): 1.84
Nootkatone Repellency (0.5 hr): 100.0%
bed bugs on nootkatone-treated filter paper (count, of 50) (0.5 hr): 0
Nootkatone Repellency (1 hr): 100.0%
bed bugs on nootkatone-treated filter paper (count, of 50) (1 hr): 0
Nootkatone Repellency (1.5 hr): 100.0%
bed bugs on nootkatone-treated filter paper (count, of 50) (1.5 hr): 0
Nootkatone Repellency (2 hr): 100.0%
bed bugs on nootkatone-treated filter paper (count, of 50) (2 hr): 0
Nootkatone Repellency (24 hr): 100.0%
bed bugs on nootkatone-treated filter paper (count, of 50) (24 hr): 0
Nootkatone Repellency (Averages of time points): 100.0%
bed bugs on nootkatone-treated filter paper (count, of 50) (Averages of time points): 0
bed bug repellency compared with acetone alone, in words (5% nootkatone in acetone): repels bed bugs to a greater extent than that observed for acetone alone
bed bug repellency compared with isopropanol alone, in words (10% nootkatone in isopropyl alcohol): repels bed bugs to a greater extent than that observed for isopropanol alone
Nootkatone Repellency (corrected for isopropanol control) (0.5 hr): 85.7%
bed bugs on 10% Nootkatone-treated filter paper, average count of five trials (of 10) (0.5 hr): 0.4
Nootkatone Repellency (corrected for isopropanol control) (1 hr): 100.0%
bed bugs on 10% Nootkatone-treated filter paper, average count of five trials (of 10) (1 hr): 0
Nootkatone Repellency (corrected for isopropanol control) (1.5 hr): 100.0%
bed bugs on 10% Nootkatone-treated filter paper, average count of five trials (of 10) (1.5 hr): 0
Nootkatone Repellency (corrected for isopropanol control) (2 hr): 100.0%
bed bugs on 10% Nootkatone-treated filter paper, average count of five trials (of 10) (2 hr): 0
Nootkatone Repellency (corrected for isopropanol control) (24 hr): 100.0%
bed bugs on 10% Nootkatone-treated filter paper, average count of five trials (of 10) (24 hr): 0
Repellency (summary of bedbug repellency) (Nootkatone 0.010% in acetone, Day 2): 68.0%
Repellency (summary of bedbug repellency) (Nootkatone 0.10% in acetone, Day 2): 73.6%
Repellency (summary of bedbug repellency) (Nootkatone 0.50% in acetone, Day 1): 100.0%
Repellency (summary of bedbug repellency) (Nootkatone 0.50% in acetone, Day 2): 91.6%
